Laboratory results published in patent publication US20080318837A1, “Pharmaceutical Formation For Increased Epithelial Permeability of Glucose-Regulating Peptide” (priority 2003, published 2008).

Experiments:
[1] = after feeding to rats; cited from earlier work
[2] = tested on: aminopeptidases; details: cited from earlier work
[3] = intraduodenally administered to rats; cited from earlier work
[4] = aqueous solution, physiologic pH; cited from earlier work
[5] = tested on: ciliary motility; details: cited from earlier work
[6] = tested on: EpiAirway tracheal/bronchial epithelial cell membrane; assay: Transepithelial electrical resistance (TEER/TER), EpiAirway model; type: cell-based; details: Table 6 formulations, 2 mg/mL GLP-1
Experimental: Triplicate samples of each formulation and controls were evaluated using the EpiAirway System in vitro model tracheal/bronchial epithelial cell membrane inserts by MatTek Corp. (Ashland, Mass.), catalog #Air-100.
EpiAirway™ culture membranes were received the day before the experiments started. They were shipped in phenol red-free and hydrocortisone-free Dulbecco's Modified Eagle's Medium (DMEM). Each tissue insert was placed into a well of a 6 well plate containing 0.9 ml of serum free DMEM. The membranes were then cultured for 24 hrs at 37° C./5% CO2 to allow tissues to equilibrate. […]
TEER measurements were read using a Tissue Resistance Measurement Chamber connected to an Epithelial Voltohmeter with the electrode leads, both from World Precision Instruments. First, background TEER was read for each insert on the day the experiment began. After TEER was read, 1 ml fresh media was placed in the bottom of each well in a 6-well plate. […]
The electrodes and a tissue culture blank insert were equilibrated for at least 20 min in fresh media with the power off prior to checking calibration. The background resistance was measured with 1.5 ml media in the Endohm tissue chamber and 300 μl media in a blank Millicell-CM insert. […] For each TEER determination, 300 μl media was added to the insert followed by a 20 min incubation at RT before placement in the Endohm chamber to read TEER. […]

[7] = tested on: EpiAirway tracheal/bronchial epithelial cell membrane; assay: LDH cytotoxicity (cell death) assay, EpiAirway model; type: cell-based
Experimental: Fresh, cell-free media was used as a blank. 50 μl substrate solution (12 ml Assay Buffer added to a fresh bottle of Substrate Mix, made according to the kit) was added to each well and the plates were incubates for 30 min at RT in the dark.

[8] = tested on: EpiAirway tracheal/bronchial epithelial cell membrane
Experimental: Triplicate samples of each formulation and controls were evaluated using the EpiAirway System in vitro model tracheal/bronchial epithelial cell membrane inserts by MatTek Corp. (Ashland, Mass.), catalog #Air-100. […] The epithelial cells are grown on porous membrane-bottomed cell culture inserts at an air-liquid interface, which results in differentiation of the cells to a highly polarized morphology. The apical surface is ciliated with a microvillous ultrastructure and the epithelium produces mucus (the presence of mucin has been confirmed by immunoblotting). The inserts have a diameter of 0.875 cm, providing a surface area of 0.6 cm^2. The cells are plated onto the inserts at the factory approximately three weeks before shipping.
EpiAirway™ culture membranes were received the day before the experiments started. They were shipped in phenol red-free and hydrocortisone-free Dulbecco's Modified Eagle's Medium (DMEM). […]
The cell viability of each tissue culture insert was tested by MTT assay. Cell viability was assessed using the MTT assay (MTT-100, MatTek kit). […] The optical density of the samples was measured at 550 nm on a μQuant optical density plate reader using KCJr software.
The MTT percentage was calculated by dividing the measured MTT value for each formulation by the MTT value of the control formulation multiplied by 100. […]

## Phaseolus vulgaris hemagglutinin
[1]
  oral bioavailability: more than 10%

## CC(C)CC(N)B(O)O (stereo not shown) [boro-leucine]
[2]
  enzyme inhibition, times more effective than bestatin: more than 100 times
  enzyme inhibition, times more effective than puromycin: more than 1000 times

## 9-desglycinamide, 8-arginine vasopressin [DGAVP]
[3]
  bioavailability increase with 1% (w/v) polycarbophil vs aqueous solution: 3-5 fold

## CCN(CC)/[N+]([O-])=N/O.CCNCC [diethylamine/NO]
[4]
  NO release rate (time): < 3 min

## NCCN(CCN)/[N+]([O-])=N/O [diethylenetriamine/NO]
[4]
  NO release rate (time): approximately 20 hours

## 2-alkyl-4-hydroxyquinolines [pyo compound]
[5]
  concentration producing ciliostasis / inhibiting ciliary motility: 50 µg/mL

## Octylphenolpoly(ethyleneglycolether)x [LDH Control]
[6]
  % TEER Reduction: 100%
[7]
  % LDH: 100%
[8]
  % MTT: 1%
